Test results from patent US10287530B2, “Surfactants based on monounsaturated fatty alcohol derivatives” (priority 2013, dated 2019).
Where two headings read alike, the source gives them in different places.

What was measured:
[1] = Interfacial tension (IFT) against light mineral oil, synergy study with cationic surfactant; format: physicochemical; settings: for IFT at 0.1% actives/mineral oil (blend): 1:1 molar blend of the anionic with Ammonyx Cetac 30, 0.1% actives, light mineral oil; for Calculated IFT (no synergy): expected IFT of the 1:1 molar blend with Ammonyx Cetac 30 by ideal mixing; for Synergy?: measured versus expected IFT of the 1:1 molar blend with Ammonyx Cetac 30; for IFT at 0.1% actives (single component): 0.1 wt. % active against light mineral oil, ambient temperature
Procedure: (§1) The surfactant blends tested are prepared at a 1:1 molar ratio without any pH adjustment. Dilutions are made using deionized water to the desired actives level. Actives amounts are wt. % unless indicated otherwise. Appearances are reported at ambient temperature for samples prepared within the last 24 h.
Interfacial tension (IFT) of all the individual components and their blends is measured at 0.1 wt. % active against light mineral oil at ambient temperature using a Kruss DSA-20 pendent drop tensiometer. The drop is blown out at 600 μL/min., and a video is recorded for 100 s. The video frames taken during the last 15 s are analyzed and used for the IFT calculation.
For blends having an IFT less than 0.5 mN/m, the IFT is determined using a spinning drop tensiometer (University of Texas 500) at 25° C. Oil density=0.877 g/cm^3 and surfactant density=0.997 g/cm^3 are used for the IFT calculation.
The expected IFT for a blend is calculated based on ideal mixing (non-synergistic) using the active component in each blend. The equation used is given as: Expected IFT=X*IFTa+(1−X)*IFTb where X is the actives % of component A, IFTa is the IFT of component A, and IFTb is the IFT of component B. If the measured IFT for a blend is less than the expected IFT, then the blend is synergistic. If the measured IFT for a blend is higher than the expected IFT, the system is antagonistic.

[2] = format: physicochemical; settings: for Emulsion stability, mL separation, 1 h / Emulsion stability, mL separation, 24 h: 342 ppm water; for Rating: overall, versus control
Procedure: Surfactant candidates for water soluble herbicide applications are examined as a replacement for the anionic, nonionic, or anionic/nonionic blend portion and compared to a known industry adjuvant standard for use in paraquat, a water soluble herbicide concentrate formulation. A standard dilution test is conducted whereby the concentrates are diluted in water to determine if solubility is complete.
A known industry paraquat adjuvant (2.8 g) is added and vigorously mixed for 30 s. Deionized water (8.07 g) is added, and mixing resumes for 30 s. […] The cylinder is stoppered and inverted ten times. Solubility is recorded as complete or incomplete. Cylinders are allowed to stand and the amount (in mL) and type of separation are recorded after 30 min., 1 h, 2 h, and 24 h. Results of the solubility testing appear in Table 4 below.
An eight to ten mole alkyl phenol ethoxylate surfactant (0.7 g) is added and vigorously mixed for 30 s. Test sample (0.7 g) is added and mixing resumes for 30 s. Deionized water (4.03 g) is added, and mixing resumes for 30 s.
Test sample (0.7 g) is added and vigorously mixed for 30 s. Sodium linear alkylbenzene sulfonate (“NaLAS,” 0.7 g) is added and mixing resumes for 30 s. Deionized water (4.03 g) is added, and mixing resumes for 30 s.
Test sample (1.4 g) is added and vigorously mixed for 30 s. Deionized water (4.03 g) is added, and mixing resumes for 30 s.

[3] = Appearance and solubility of surfactants and of 1:1 molar blends with cationic surfactant; format: physicochemical; settings: for Appearance, 1.0%: 1:1 molar blend of the anionic with Ammonyx Cetac 30, 1.0% actives
Procedure: as §1

[4] = system: zein, yellow corn (maize) protein
Procedure: The zein test is based on solubilization by surfactants of a yellow corn (maize) protein that is normally insoluble in water unless it is denatured. The test gravimetrically determines the amount of zein dissolved by a surfactant solution. The solubility of zein in surfactant solutions correlates well with skin irritation or roughness caused by the surfactant. […] A higher zein number corresponds to a greater degree of irritation.
A 1% actives solution of each test surfactant (120 mL) is prepared. The pH of each solution is adjusted to about 7.0 with dilute aq. sulfuric acid or dilute aq. sodium hydroxide. The surfactant solution is warmed to 45° C. Zein powder (1.50 g) is added to each of three jars. Surfactant (25.0 g of 1% actives solution) is added to each jar, and to one empty jar to be used as a blank. The solutions are mixed using magnetic stirring on a temperature-controlled hotplate at 45° C. for 60 min. Each mixture is then centrifuged (2500 rpm, 15 min.), and undissolved zein powder is isolated by vacuum filtration. The residue is washed with deionized water and dried (55° C., 24 h) to constant weight. The amount of undissolved zein protein is found gravimetrically, and the results from three runs are averaged to give the % of solubilized zein and zein number.

[5] = Surfactant phase behavior study by cross-polarized microscopy; format: physicochemical; settings: in deionized water, room temperature (20-22° C.); boundaries are estimates (±5%)
Procedure: Phase behavior is observed using an Olympus BH-2 cross-polarized microscope at 100-400× and room temperature (20° C. to 22° C.). The monounsaturated C11 alcohol derivatives (sulfates, ethoxylate sulfates, and alcohol ethoxylates) are compared with their saturated analogs. Samples are prepared by diluting the most concentrated product gradually with deionized water. When the surfactant concentration approaches a phase transition, the concentration is varied at 2-4% intervals to estimate the phase boundary. The actives level reported in Table 6 for each phase boundary is within ±5% of the true boundary. Samples are loaded between a microscope slide and cover glass and are allowed to equilibrate before observation. Microscopic texture is analyzed and used to determine the phase. For some samples, an AR 2000 rheometer (TA Instruments) is used to measure viscosity at 25° C. to further verify phase behavior.

[6] = Adjuvant (anionic/nonionic) test sample

Row | Substance | IFT at 0.1% actives/mineral oil (blend) [1] [mN/m] | Calculated IFT (no synergy) [1] [mN/m] | Synergy? [1] | IFT at 0.1% actives (single component) [1] [mN/m] | Emulsion stability, mL separation, 1 h [2, 6] [mL] | Emulsion stability, mL separation, 24 h [2, 6] [mL] | Emulsion stability, mL separation, 1 h ([2]; Anionic test sample) [mL] | Emulsion stability, mL separation, 24 h ([2]; Anionic test sample) [mL] | Emulsion stability, mL separation, 1 h ([2]; Nonionic test sample) [mL] | Emulsion stability, mL separation, 24 h ([2]; Nonionic test sample) [mL] | Rating [2] | Solubility [3] | Appearance, 1.0% ([3]; ambient temperature) | Estimated Phase Region as a Function of % Actives Level: Isotropic Clear [5] | Estimated Phase Region as a Function of % Actives Level: Solid/gum/paste [5] | further results
1 | Undecylenic Alcohol, 1EO Ether Sulfate, Sodium Salt [Unsat. C11 alcohol 1EO Na sulfate] | 0.13 | 3.27 | very high | 6.18 | 0 | 0.5 | 0 | 0 | 0.2 | 0.25 | good | good | separated | 0-64 % actives | 74-100 % actives | % solubilized zein ([4]; 1% actives solution, pH about 7.0, 45° C., 60 min, average of three runs): 8.3%; zein number ([4]; relative to 1% actives Stepanol WA-Extra PCK (SLS) control = 100, higher = more irritating, average of three runs): 16.7; Estimated Phase Region as a Function of % Actives Level: Solid/isotropic [5]: 64-74 % actives
2 | 1-Undecanol, 1EO Ether Sulfate, Sodium Salt [Sat. C11 alcohol 1EO Na sulfate] | 0.23 | 6.44 | very high | 12.52 | 0 | 0.2 | 0 | 0 | 0.2 | 0.5 | good | fair-poor | separated | 0-36 % actives | 72-100 % actives | Appearance, 0.1% ([3]; 1:1 molar blend of the anionic with Ammonyx Cetac 30, 0.1% actives, ambient temperature): hazy liquid; % solubilized zein [4]: 33.7%; zein number [4]: 68.0; Estimated Phase Region as a Function of % Actives Level: Hexagonal [5]: 36-58 % actives; Estimated Phase Region as a Function of % Actives Level: Lamellar [5]: 58-72 % actives
